Assay results as given in EP4635500A1, “THERAPEUTIC AGENT FOR BACTERIAL INFECTION” (Sumitomo Pharma Co., Ltd., priority 2022, dated 2024).
In brackets after ≈: the same amount, converted by molar mass. Read-outs that look alike come from different tables or passages of the source.

What was measured:
Type in all cases: cell-based
Serratia marcescens = test: MIC and MBC, broth microdilution (Example 4, Table 3); details: Serratia marcescens CDC-124 (SME-3)
Morganella morganii = test: as above; details: Morganella morganii CDC-57 (NDM-1)
Bacteroides spp. = test: MIC, agar dilution, anaerobic bacteria (Example 9, Tables 17, 22); details: for MIC: (n)=Compound A µg/mL, 0=Compound A alone antibacterial
Prevotella spp. = test: MIC, agar dilution, anaerobic bacteria (Example 9, Tables 18, 23); details: (n)=Compound A µg/mL, 0=Compound A alone antibacterial

C[C@@H](O)[C@H]1C(=O)N2C(C(=O)O)=C(S[C@@H]3CN[C@H](C(=O)N(C)C)C3)[C@H](C)[C@H]12 [MEPM, meropenem]
MIC (Serratia marcescens): 64 µg/mL (≈ 167 µM)
MBC (Morganella morganii): 8 µg/mL (≈ 20.9 µM)
MIC (Morganella morganii): 8 µg/mL (≈ 20.9 µM)
MIC50 (Bacteroides spp.; Bacteroides spp.): 0.5 µg/mL (≈ 1.3 µM)
MIC90 (Bacteroides spp.; Bacteroides spp.): 4 µg/mL (≈ 10.4 µM)
MIC (Bacteroides spp.; Bacteroides, KUB No. 2982 Bacteroidesfragilis): 0.12 µg/mL (≈ 0.313 µM)
MIC (Bacteroides spp.; Bacteroides, KUB No. 6464 Bacteroides vulgarus): 0.12 µg/mL (≈ 0.313 µM)
MIC (Bacteroides spp.; Bacteroides, KUB No. 6480 Bacteroides thetaioraomicron): 1 µg/mL (≈ 2.61 µM)
MIC (Bacteroides spp.; Bacteroides, KUB No. 6487 Bacteroides thetaiotamicron): 2 µg/mL (≈ 5.22 µM)
MIC50 (Bacteroides spp.; Bacteroides, n=56, combination: Compound A at 4 ug/mL, read-out: MIC50): 0.5 µg/mL
MIC90 (Bacteroides spp.; Bacteroides, n=56, combination: Compound A at 4 ug/mL, read-out: MIC90): 4 µg/mL
MIC (Bacteroides spp.; KUB No. 2977 Bacteroides thetaiotaomicron ATCC 29741): 0.25 µg/mL (≈ 0.652 µM)
MIC (Bacteroides spp.; KUB No. 2983 Bacteroides fragilis): 4 µg/mL (≈ 10.4 µM)
MIC (Bacteroides spp.; KUB No. 2984 Bacteroides thetaiotaomicron): 0.25 µg/mL (≈ 0.652 µM)
MIC (Bacteroides spp.; KUB No. 3003 Bacteroides fragilis ATCC 25285): 0.12 µg/mL (≈ 0.313 µM)
MIC (Bacteroides spp.; KUB No. 3009 Bacteroides ovatus): 1 µg/mL (≈ 2.61 µM)
MIC (Bacteroides spp.; KUB No. 6458 Bacteroides fragilis): 0.5 µg/mL (≈ 1.3 µM)
MIC (Bacteroides spp.; KUB No. 6459 Bacteroides stercoris): 0.25 µg/mL (≈ 0.652 µM)
MIC (Bacteroides spp.; KUB No. 6460 Bacteroides thetaiotaomicron): 2 µg/mL (≈ 5.22 µM)
MIC (Bacteroides spp.; KUB No. 6461 Bacteroides fragilis): 0.5 µg/mL (≈ 1.3 µM)
MIC (Bacteroides spp.; KUB No. 6463 Bacteroides fragilis): 0.12 µg/mL (≈ 0.313 µM)
MIC (Bacteroides spp.; KUB No. 6465 Bacteroides thetaiotaomicron): 0.5 µg/mL (≈ 1.3 µM)
MIC (Bacteroides spp.; KUB No. 6466 Bacteroides fragilis): 4 µg/mL (≈ 10.4 µM)
MIC (Bacteroides spp.; KUB No. 6467 Bacteroides fragilis): 0.12 µg/mL (≈ 0.313 µM)
MIC (Bacteroides spp.; KUB No. 6468 Bacteroides fragilis): 4 µg/mL (≈ 10.4 µM)
MIC (Bacteroides spp.; KUB No. 6469 Bacteroides fragilis): 0.25 µg/mL (≈ 0.652 µM)
MIC (Bacteroides spp.; KUB No. 6470 Bacteroides fragilis): 0.25 µg/mL (≈ 0.652 µM)
MIC (Bacteroides spp.; KUB No. 6471 Bacteroides fragilis): 0.12 µg/mL (≈ 0.313 µM)
MIC (Bacteroides spp.; KUB No. 6472 Bacteroides stercoris): 1 µg/mL (≈ 2.61 µM)
MIC (Bacteroides spp.; KUB No. 6473 Bacteroides fragilis): 0.25 µg/mL (≈ 0.652 µM)
MIC (Bacteroides spp.; KUB No. 6474 Bacteroides fragilis): 1 µg/mL (≈ 2.61 µM)
MIC (Bacteroides spp.; KUB No. 6475 Bacteroides thetaiotaomicron): 2 µg/mL (≈ 5.22 µM)
MIC (Bacteroides spp.; KUB No. 6476 Bacteroides vulgatus): 0.5 µg/mL (≈ 1.3 µM)
MIC (Bacteroides spp.; KUB No. 6477 Bacteroides fragilis): 4 µg/mL (≈ 10.4 µM)
MIC (Bacteroides spp.; KUB No. 6478 Bacteroides fragilis): 0.12 µg/mL (≈ 0.313 µM)
MIC (Bacteroides spp.; KUB No. 6481 Bacteroides fragilis): 0.12 µg/mL (≈ 0.313 µM)
MIC (Bacteroides spp.; KUB No. 6483 Bacteroides fragilis): 0.12 µg/mL (≈ 0.313 µM)
MIC (Bacteroides spp.; KUB No. 6484 Bacteroides fragilis): 0.25 µg/mL (≈ 0.652 µM)
MIC (Bacteroides spp.; KUB No. 6485 Bacteroides vulgatus): 8 µg/mL (≈ 20.9 µM)
MIC (Bacteroides spp.; KUB No. 6486 Bacteroides fragilis): 0.12 µg/mL (≈ 0.313 µM)
MIC (Bacteroides spp.; KUB No. 6490 Bacteroides fragilis): 64 µg/mL (≈ 167 µM)
MIC (Bacteroides spp.; KUB No. 6491 Bacteroides fragilis): 16 µg/mL (≈ 41.7 µM)
MIC (Bacteroides spp.; KUB No. 6493 Bacteroides thetaiotaomicron): 0.25 µg/mL (≈ 0.652 µM)
MIC (Bacteroides spp.; KUB No. 6496 Bacteroides fragilis): 0.12 µg/mL (≈ 0.313 µM)
MIC (Bacteroides spp.; KUB No. 6497 Bacteroides vulgatus): 0.12 µg/mL (≈ 0.313 µM)
MIC (Bacteroides spp.; KUB No. 6502 Bacteroides fragilis): 16 µg/mL (≈ 41.7 µM)
MIC (Bacteroides spp.; KUB No. 6503 Bacteroides thetaiotaomicron): 0.5 µg/mL (≈ 1.3 µM)
MIC (Bacteroides spp.; KUB No. 6504 Bacteroides caccae): 0.25 µg/mL (≈ 0.652 µM)
MIC (Bacteroides spp.; KUB No. 6506 Bacteroides thetaiotaomicron): 4 µg/mL (≈ 10.4 µM)
MIC (Bacteroides spp.; KUB No. 6509 Bacteroides fragilis): > 512 µg/mL
MIC (Bacteroides spp.; KUB No. 6511 Bacteroides salyersiae): 1 µg/mL (≈ 2.61 µM)
MIC (Bacteroides spp.; KUB No. 6513 Bacteroides fragilis): 0.25 µg/mL (≈ 0.652 µM)
MIC (Bacteroides spp.; KUB No. 6515 Bacteroides thetaiotaomicron): 2 µg/mL (≈ 5.22 µM)
MIC (Bacteroides spp.; KUB No. 6518 Bacteroides fragilis): 0.06 µg/mL (≈ 0.156 µM)
MIC (Bacteroides spp.; KUB No. 6522 Bacteroides fragilis): 0.25 µg/mL (≈ 0.652 µM)
MIC (Bacteroides spp.; KUB No. 6523 Bacteroides fragilis): 4 µg/mL (≈ 10.4 µM)
MIC (Bacteroides spp.; KUB No. 6525 Bacteroides fragilis): 4 µg/mL (≈ 10.4 µM)
MIC (Bacteroides spp.; KUB No. 6527 Bacteroides thetaiotaomicron): 4 µg/mL (≈ 10.4 µM)
MIC (Bacteroides spp.; KUB No. 6530 Bacteroides thetaiotaomicron): 2 µg/mL (≈ 5.22 µM)
MIC (Bacteroides spp.; KUB No. 6535 Bacteroides fragilis): 0.12 µg/mL (≈ 0.313 µM)
MIC (Bacteroides spp.; KUB No. 6544 Bacteroides vulgatus): 1 µg/mL (≈ 2.61 µM)
MIC (Bacteroides spp.; KUB No. 6545 Bacteroides thetaiotaomicron): 2 µg/mL (≈ 5.22 µM)
MIC (Bacteroides spp.; KUB No. 6556 Bacteroides vulgatus): 1 µg/mL (≈ 2.61 µM)
MIC (Prevotella spp.; KUB No. 2989 Prevotella histicola): 0.06 µg/mL (≈ 0.156 µM)
MIC (Prevotella spp.; KUB No. 2991 Prevotella intermedia): 0.06 µg/mL (≈ 0.156 µM)
MIC (Prevotella spp.; KUB No. 2992 Prevotella buccae): 0.12 µg/mL (≈ 0.313 µM)
MIC (Prevotella spp.; KUB No. 3005 Prevotella melaninogenica): ≤ 0.03 µg/mL
MIC (Prevotella spp.; KUB No. 6558 Prevotella heparinolytica): 0.06 µg/mL (≈ 0.156 µM)
MIC (Prevotella spp.; KUB No. 6559 Prevotella intermedia): ≤ 0.03 µg/mL
MIC (Prevotella spp.; KUB No. 6560 Prevotella nigrescens): ≤ 0.03 µg/mL
MIC (Prevotella spp.; KUB No. 6561 Prevotella melaninogenica): 0.12 µg/mL (≈ 0.313 µM)
MIC (Prevotella spp.; KUB No. 6563 Prevotella nigrescens): ≤ 0.03 µg/mL
MIC (Prevotella spp.; KUB No. 6564 Prevotella buccae): 0.12 µg/mL (≈ 0.313 µM)
MIC (Prevotella spp.; KUB No. 6565 Prevotella nigrescens): 0.06 µg/mL (≈ 0.156 µM)
MIC (Prevotella spp.; KUB No. 6567 Prevotella melaninogenica): ≤ 0.03 µg/mL
MIC (Prevotella spp.; KUB No. 6568 Prevotella intermedia): 0.06 µg/mL (≈ 0.156 µM)
MIC (Prevotella spp.; KUB No. 6569 Prevotella nanceiensis): 0.5 µg/mL (≈ 1.3 µM)
MIC (Prevotella spp.; KUB No. 6570 Prevotella intermedia): 0.06 µg/mL (≈ 0.156 µM)
MIC (Prevotella spp.; KUB No. 6571 Prevotella denticola): 0.06 µg/mL (≈ 0.156 µM)
MIC (Prevotella spp.; KUB No. 6572 Prevotella melaninogenica): 0.06 µg/mL (≈ 0.156 µM)
MIC (Prevotella spp.; KUB No. 6574 Prevotella oris): ≤ 0.03 µg/mL
MIC (Prevotella spp.; KUB No. 6575 Prevotella nigrescens): ≤ 0.03 µg/mL
MIC (Prevotella spp.; KUB No. 6576 Prevotella intermedia): ≤ 0.03 µg/mL
